Common to all, as to assay type: in vivo
Experiment [1] deals with Japanese bulrush (Scirpus juncoides Roxb.). The experiment in a line: Test Example 1: herbicidal effect by soil application to paddy field. To be noted: paddy field soil application; active ingredient 1,000 g per 1 hectare; wettable powder added dropwise to water surface the day after sowing; examined on the 21st day after application. Put shortly:
(§1)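 Under greenhouse conditions, seeds sown on puddled paddy soil in 100 cm2 pots under 3 cm of standing water received the test compound; injury was assessed with a standard scoring scheme three weeks (day 21) after treatment.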

Experiment [2] has as its system heartshape false pickerelweed (Monochoria vaginalis (Burm.f.) C.Presl). The description is as above. Conditions: paddy field soil application; active ingredient 1,000 g per 1 hectare; wettable powder added dropwise to water surface the day after sowing; examined on the 21st day after application. Put shortly:
as §1

Experiment [3] concerns early watergrass (Echinochloa oryzicola Vasing). Described as above. To be noted: paddy field soil application; active ingredient 1,000 g per 1 hectare; wettable powder added dropwise to water surface the day after sowing; examined on the 21st day after application. Put shortly:
as §1

In experiment [4] the test system is slender amaranth (Amaranthus viridis L.). The experiment in a line: Test Example 2: herbicidal effect by soil application to upland field. To be noted: soil surface spray, upland field soil, 1,000 g active ingredient per hectare, 21st day after application. Put shortly: (§2)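 Dose was 1,000 g active ingredient per hectare, applied as a wettable powder diluted in water and sprayed evenly over the soil of sown, covered pots at a 1,000 L/ha equivalent. Effect was judged by a standard scale 21 d later under greenhouse conditions.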

Experiment [5] relates to green foxtail (Setaria viridis (L.) P. Beauv.). The experiment is described as above. Conditions: soil surface spray, upland field soil, 1,000 g active ingredient per hectare, 21st day after application. Put shortly:
as §2

Experiment [6] concerns barnyardgrass (Echinochloa crus-galli (L.) P. Beauv. var. crus-galli). The description is as above. Conditions: soil surface spray, upland field soil, 1,000 g active ingredient per hectare, 21st day after application. Put shortly: as §2
Experiment [7] has as its system velvetleaf (Abutilon theophrasti medicus). Described as above. To be noted: soil surface spray, upland field soil, 1,000 g active ingredient per hectare, 21st day after application. Put shortly:
as §2

The subject of experiment [8] is slender amaranth (Amaranthus viridis L.). The experiment in a line: Test Example 3: herbicidal effect by application to upland field (foliage treatment). Conditions: 14th day after application; for herbicidal effect, Slender Amaranth: foliage treatment, 1,000 g active ingredient per 1 hectare, greenhouse; for herbicidal effect (index), Slender Amaranth: foliage treatment, plants grown two weeks, 1,000 g active ingredient per hectare. Put shortly: (§3)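 Foliage treatment, greenhouse: 2-week-old plants in field soil; wettable powder in water sprayed over the top at 1,000 g a.i./ha (1,000 L/ha); rating on day 14 post-application.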

Experiment [9] relates to green foxtail (Setaria viridis (L.) P. Beauv.). Described as above. Conditions: 14th day after application; for herbicidal effect, Green Foxtail: foliage treatment, 1,000 g active ingredient per 1 hectare, greenhouse; for herbicidal effect (index), Green Foxtail: foliage treatment, plants grown two weeks, 1,000 g active ingredient per hectare. Put shortly: as §3
In experiment [10] the test system is barnyardgrass (Echinochloa crus-galli (L.) P. Beauv. var. crus-galli). The experiment is described as above. To be noted: 14th day after application; for herbicidal effect, Barnyardgrass: foliage treatment, 1,000 g active ingredient per 1 hectare, greenhouse; for herbicidal effect (index), Barnyardgrass: foliage treatment, plants grown two weeks, 1,000 g active ingredient per hectare. Put shortly: as §3

The test system of experiment [11] is velvetleaf (Abutilon theophrasti medicus). Described as above. To be noted: 14th day after application; for herbicidal effect, Velvetleaf: foliage treatment, 1,000 g active ingredient per 1 hectare, greenhouse; for herbicidal effect (index), Velvetleaf: foliage treatment, plants grown two weeks, 1,000 g active ingredient per hectare. Put shortly:
as §3

With `Cn1c(C(F)(F)C(F)(F)F)ccc(C(=O)C2=C(O)CCCC2=O)c1=O` [I-227], in experiment [1], the “herbicidal effect, Scirpus juncoides Roxb.” value is 5 (90% or more of herbicidal effect and crop phytotoxicity). In [2], the “herbicidal effect, Monochoria vaginalis (Burm. f.) C. Presl” value (“herbicidal effect, Monochoria vaginalis” for short) was 5 (90% or more of herbicidal effect and crop phytotoxicity). For the same molecule, the “herbicidal effect, Echinochloa oryzicola Vasing” value in experiment [3] is 5 (90% or more of herbicidal effect and crop phytotoxicity). In addition, the “herbicidal effect (index), Slender Amaranth” value in experiment [4] is 5 (90% or more of herbicidal effect and crop phytotoxicity). The “herbicidal effect (index), Green Foxtail” value in experiment [5] was 5 (90% or more of herbicidal effect and crop phytotoxicity). In addition, in experiment [6], the “herbicidal effect (index), Barnyardgrass” value is 4 (70 to less than 90% of herbicidal effect and crop phytotoxicity). The “herbicidal effect (index), Velvetleaf” value in [7] was 5 (90% or more of herbicidal effect and crop phytotoxicity). In addition, in experiment [8], the “herbicidal effect, Slender Amaranth” value is 5 (90% or more of herbicidal effect and crop phytotoxicity). In experiment [9], the “herbicidal effect, Green Foxtail” value was 5 (90% or more of herbicidal effect and crop phytotoxicity). For the same molecule, the “herbicidal effect, Barnyardgrass” value in experiment [10] is 3 (50 to less than 70% of herbicidal effect and crop phytotoxicity). In addition, the “herbicidal effect, Velvetleaf” value in experiment [11] is 5 (90% or more of herbicidal effect and crop phytotoxicity).

On to `O=C1CCCC(O)=C1C(=O)c1ccc(C(F)(F)F)n(CSC2CCCC2)c1=O` [I-59], for which the “herbicidal effect, Scirpus juncoides Roxb.” value in experiment [1] is 5 (90% or more of herbicidal effect and crop phytotoxicity). Moreover, the “herbicidal effect, Monochoria vaginalis” value in experiment [2] is 5 (90% or more of herbicidal effect and crop phytotoxicity). Moreover, in experiment [3], the “herbicidal effect, Echinochloa oryzicola Vasing” value was 5 (90% or more of herbicidal effect and crop phytotoxicity). Also, the “herbicidal effect (index), Slender Amaranth” value in experiment [4] was 5 (90% or more of herbicidal effect and crop phytotoxicity); in experiment [8] it was 5 (90% or more of herbicidal effect and crop phytotoxicity). For the same molecule, the “herbicidal effect (index), Green Foxtail” value in [5] was 4 (70 to less than 90% of herbicidal effect and crop phytotoxicity); in experiment [9] it was 5 (90% or more of herbicidal effect and crop phytotoxicity). In addition, the “herbicidal effect (index), Barnyardgrass” value in [6] is 5 (90% or more of herbicidal effect and crop phytotoxicity); in experiment [10] it was 5 (90% or more of herbicidal effect and crop phytotoxicity). The “herbicidal effect (index), Velvetleaf” value in [7] is 5 (90% or more of herbicidal effect and crop phytotoxicity); in experiment [11] it was 5 (90% or more of herbicidal effect and crop phytotoxicity).

For `O=C1CCCC(O)=C1C(=O)c1ccc(C(F)(F)F)n(C2CC2)c1=O` [I-16], the “herbicidal effect, Scirpus juncoides Roxb.” value in [1] is 5 (90% or more of herbicidal effect and crop phytotoxicity). The “herbicidal effect, Monochoria vaginalis” value in experiment [2] is 5 (90% or more of herbicidal effect and crop phytotoxicity). Moreover, the “herbicidal effect, Echinochloa oryzicola Vasing” value in experiment [3] was 5 (90% or more of herbicidal effect and crop phytotoxicity). In addition, the “herbicidal effect (index), Slender Amaranth” value in experiment [4] was 5 (90% or more of herbicidal effect and crop phytotoxicity); in experiment [8], 5 (90% or more of herbicidal effect and crop phytotoxicity). Moreover, the “herbicidal effect (index), Green Foxtail” value is 5 (90% or more of herbicidal effect and crop phytotoxicity) in experiment [5]; 5 (90% or more of herbicidal effect and crop phytotoxicity) in experiment [9]. Also, the “herbicidal effect (index), Barnyardgrass” value in experiment [6] was 5 (90% or more of herbicidal effect and crop phytotoxicity); in experiment [10], 5 (90% or more of herbicidal effect and crop phytotoxicity). Also, the “herbicidal effect (index), Velvetleaf” value is 5 (90% or more of herbicidal effect and crop phytotoxicity) in experiment [7]; 5 (90% or more of herbicidal effect and crop phytotoxicity) in [11].

Turning to `CCNn1c(C(F)(F)F)ccc(C(=O)C2=C(O)CCCC2=O)c1=O` [I-158], in [1], the “herbicidal effect, Scirpus juncoides Roxb.” value is 5 (90% or more of herbicidal effect and crop phytotoxicity). Besides, in experiment [2], the “herbicidal effect, Monochoria vaginalis” value is 5 (90% or more of herbicidal effect and crop phytotoxicity). The “herbicidal effect, Echinochloa oryzicola Vasing” value in experiment [3] was 5 (90% or more of herbicidal effect and crop phytotoxicity). Besides, the “herbicidal effect (index), Slender Amaranth” value in experiment [4] was 5 (90% or more of herbicidal effect and crop phytotoxicity). Moreover, the “herbicidal effect (index), Green Foxtail” value in experiment [5] is 5 (90% or more of herbicidal effect and crop phytotoxicity). Also, the “herbicidal effect (index), Barnyardgrass” value in experiment [6] is 5 (90% or more of herbicidal effect and crop phytotoxicity). In experiment [7], the “herbicidal effect (index), Velvetleaf” value was 5 (90% or more of herbicidal effect and crop phytotoxicity). The “herbicidal effect, Slender Amaranth” value in [8] was 5 (90% or more of herbicidal effect and crop phytotoxicity). For the same molecule, in experiment [9], the “herbicidal effect, Green Foxtail” value is 5 (90% or more of herbicidal effect and crop phytotoxicity). Besides, the “herbicidal effect, Barnyardgrass” value in experiment [10] is 5 (90% or more of herbicidal effect and crop phytotoxicity). The “herbicidal effect, Velvetleaf” value in experiment [11] is 5 (90% or more of herbicidal effect and crop phytotoxicity).

Take `COc1ccc(-n2c(C(F)(F)F)ccc(C(=O)C3=C(O)CCCC3=O)c2=O)cc1F` [I-109]: the “herbicidal effect, Scirpus juncoides Roxb.” value in experiment [1] was 5 (90% or more of herbicidal effect and crop phytotoxicity). The “herbicidal effect, Monochoria vaginalis” value in experiment [2] is 5 (90% or more of herbicidal effect and crop phytotoxicity). The “herbicidal effect, Echinochloa oryzicola Vasing” value in [3] was 4 (70 to less than 90% of herbicidal effect and crop phytotoxicity). Besides, in experiment [4], the “herbicidal effect (index), Slender Amaranth” value was 5 (90% or more of herbicidal effect and crop phytotoxicity). The “herbicidal effect (index), Green Foxtail” value in [5] is 5 (90% or more of herbicidal effect and crop phytotoxicity). In addition, the “herbicidal effect (index), Barnyardgrass” value in experiment [6] was 5 (90% or more of herbicidal effect and crop phytotoxicity). Moreover, the “herbicidal effect (index), Velvetleaf” value in experiment [7] was 5 (90% or more of herbicidal effect and crop phytotoxicity). In experiment [8], the “herbicidal effect, Slender Amaranth” value was 5 (90% or more of herbicidal effect and crop phytotoxicity). The “herbicidal effect, Green Foxtail” value in experiment [9] was 4 (70 to less than 90% of herbicidal effect and crop phytotoxicity). Moreover, the “herbicidal effect, Barnyardgrass” value in experiment [10] was 5 (90% or more of herbicidal effect and crop phytotoxicity). The “herbicidal effect, Velvetleaf” value in experiment [11] is 5 (90% or more of herbicidal effect and crop phytotoxicity).

As to `CCCCn1c(C(F)(F)F)ccc(C(=O)C2=C(O)C3CCC(C3)C2=O)c1=O` (stereo not drawn) [III-6], in [1], the “herbicidal effect, Scirpus juncoides Roxb.” value is 5 (90% or more of herbicidal effect and crop phytotoxicity). Besides, the “herbicidal effect, Monochoria vaginalis” value in experiment [2] is 5 (90% or more of herbicidal effect and crop phytotoxicity). In addition, the “herbicidal effect, Echinochloa oryzicola Vasing” value in experiment [3] is 5 (90% or more of herbicidal effect and crop phytotoxicity). Also, the “herbicidal effect (index), Slender Amaranth” value in [4] was 5 (90% or more of herbicidal effect and crop phytotoxicity). Moreover, the “herbicidal effect (index), Green Foxtail” value in experiment [5] is 5 (90% or more of herbicidal effect and crop phytotoxicity). The “herbicidal effect (index), Barnyardgrass” value in experiment [6] was 5 (90% or more of herbicidal effect and crop phytotoxicity). Moreover, in experiment [7], the “herbicidal effect (index), Velvetleaf” value is 5 (90% or more of herbicidal effect and crop phytotoxicity). Moreover, the “herbicidal effect, Slender Amaranth” value in experiment [8] is 5 (90% or more of herbicidal effect and crop phytotoxicity). Besides, in experiment [9], the “herbicidal effect, Green Foxtail” value is 5 (90% or more of herbicidal effect and crop phytotoxicity). Further, in experiment [10], the “herbicidal effect, Barnyardgrass” value was 5 (90% or more of herbicidal effect and crop phytotoxicity). Further, the “herbicidal effect, Velvetleaf” value in [11] is 5 (90% or more of herbicidal effect and crop phytotoxicity).

The values above are taken from patent US8076487B2, “Pyridone derivative and herbicide” (Kumiai Chemical Industry Co., Ltd., priority 2006, dated 2011).
